Source: PubChem BioAssay (NCI)
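Five compound concentrations were applied to cells in 96-well plates for 48 hours; endpoints were derived by simple linear interpolation of the resulting dose-response curve. Here, GI50 denotes the concentration required for 50% inhibition of growth. TGI denotes the concentration required for complete inhibition of growth.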

Assays:
Assay in all cases: NCI-60 cell line screen, 48 h
M14 melanoma = system: M14 melanoma
U251 CNS = system: U251 CNS
NCI/ADR-RES ovarian = system: NCI/ADR-RES ovarian
NCI-H23 lung = system: NCI-H23 lung
NCI-H226 lung = system: NCI-H226 lung
SNB-19 CNS = system: SNB-19 CNS
HT29 colon = system: HT29 colon
UO-31 renal = system: UO-31 renal
CAKI-1 renal = system: CAKI-1 renal
A498 renal = system: A498 renal
HCT-15 colon = system: HCT-15 colon
SK-MEL-5 melanoma = system: SK-MEL-5 melanoma
DU-145 prostate = system: DU-145 prostate
HCC-2998 colon = system: HCC-2998 colon
OVCAR-8 ovarian = system: OVCAR-8 ovarian
SF-295 CNS = system: SF-295 CNS
MOLT-4 leukemia = system: MOLT-4 leukemia
HOP-92 NSCLC = system: HOP-92 NSCLC
KM12 colon = system: KM12 colon
A549 NSCLC = system: A549 NSCLC
SF-268 CNS = system: SF-268 CNS
HCT-116 colon = system: HCT-116 colon
MALME-3M melanoma = system: MALME-3M melanoma
HL-60(TB) leukemia = system: HL-60(TB) leukemia
MDA-MB-435 = system: MDA-MB-435
SW-620 colon = system: SW-620 colon
OVCAR-3 ovarian = system: OVCAR-3 ovarian
SK-OV-3 ovarian = system: SK-OV-3 ovarian
OVCAR-5 ovarian = system: OVCAR-5 ovarian
K-562 leukemia = system: K-562 leukemia
ACHN renal = system: ACHN renal
OVCAR-4 ovarian = system: OVCAR-4 ovarian
RXF 393 renal = system: RXF 393 renal
SK-MEL-28 melanoma = system: SK-MEL-28 melanoma
EKVX NSCLC = system: EKVX NSCLC
SR leukemia = system: SR leukemia
RPMI-8226 leukemia = system: RPMI-8226 leukemia
MCF7 breast = system: MCF7 breast
MDA-MB-231 breast = system: MDA-MB-231 breast
UACC-257 melanoma = system: UACC-257 melanoma
NCI-H522 lung = system: NCI-H522 lung
HOP-62 NSCLC = system: HOP-62 NSCLC
HS 578T breast = system: HS 578T breast
CCRF-CEM leukemia = system: CCRF-CEM leukemia
SK-MEL-2 melanoma = system: SK-MEL-2 melanoma
BT-549 breast = system: BT-549 breast
SF-539 CNS = system: SF-539 CNS
COLO 205 colon = system: COLO 205 colon
TK-10 renal = system: TK-10 renal
SN12C renal = system: SN12C renal
IGROV1 ovarian = system: IGROV1 ovarian
SNB-75 CNS = system: SNB-75 CNS
NCI-H460 lung = system: NCI-H460 lung
T-47D breast = system: T-47D breast
LOX IMVI melanoma = system: LOX IMVI melanoma

**Q.** `CCCC1=C(C(=O)OCC)C(c2ccccc2OC)C(C#N)=C(N)O1` (stereo not given) was tested. Which GI50 (M14 melanoma) did it give?
**A.** 34.2 µM

**Q.** What about the TGI (M14 melanoma) of the same molecule?
**A.** > 100 µM

**Q.** What about the GI50 (U251 CNS) of the same molecule?
**A.** 44.7 µM

**Q.** And the TGI (U251 CNS)?
**A.** > 100 µM

**Q.** What about the GI50 (NCI/ADR-RES ovarian) of the same molecule?
**A.** 37.6 µM

**Q.** What about the TGI (NCI/ADR-RES ovarian) of the same molecule?
**A.** > 100 µM

**Q.** What about the GI50 (NCI-H23 lung) of the same molecule?
**A.** > 100 µM

**Q.** What about the TGI (NCI-H23 lung) of the same molecule?
**A.** > 100 µM

**Q.** And the GI50 (NCI-H226 lung)?
**A.** 22.5 µM

**Q.** And the TGI (NCI-H226 lung)?
**A.** 58.2 µM

**Q.** And the GI50 (SNB-19 CNS)?
**A.** > 100 µM

**Q.** And the TGI (SNB-19 CNS)?
**A.** > 100 µM

**Q.** And the GI50 (HT29 colon)?
**A.** 34.4 µM

**Q.** And the TGI (HT29 colon)?
**A.** > 100 µM

**Q.** And the GI50 (UO-31 renal)?
**A.** 37.5 µM

**Q.** And the TGI (UO-31 renal)?
**A.** > 100 µM

**Q.** And the GI50 (CAKI-1 renal)?
**A.** 57.5 µM

**Q.** What about the TGI (CAKI-1 renal) of the same molecule?
**A.** > 100 µM

**Q.** And the GI50 (A498 renal)?
**A.** 62.2 µM

**Q.** What about the TGI (A498 renal) of the same molecule?
**A.** > 100 µM

**Q.** And the GI50 (HCT-15 colon)?
**A.** 50.3 µM

**Q.** What about the TGI (HCT-15 colon) of the same molecule?
**A.** > 100 µM

**Q.** What about the GI50 (SK-MEL-5 melanoma) of the same molecule?
**A.** 23.9 µM

**Q.** What about the TGI (SK-MEL-5 melanoma) of the same molecule?
**A.** 64.7 µM

**Q.** And the GI50 (DU-145 prostate)?
**A.** 29.3 µM

**Q.** And the TGI (DU-145 prostate)?
**A.** > 100 µM

**Q.** And the GI50 (HCC-2998 colon)?
**A.** 77.3 µM

**Q.** What about the TGI (HCC-2998 colon) of the same molecule?
**A.** > 100 µM

**Q.** What about the GI50 (OVCAR-8 ovarian) of the same molecule?
**A.** 43.8 µM

**Q.** What about the TGI (OVCAR-8 ovarian) of the same molecule?
**A.** > 100 µM

**Q.** What about the GI50 (SF-295 CNS) of the same molecule?
**A.** 84 µM

**Q.** What about the TGI (SF-295 CNS) of the same molecule?
**A.** > 100 µM

**Q.** And the GI50 (MOLT-4 leukemia)?
**A.** 26.1 µM

**Q.** And the TGI (MOLT-4 leukemia)?
**A.** 89.8 µM

**Q.** And the GI50 (HOP-92 NSCLC)?
**A.** 37.7 µM

**Q.** What about the TGI (HOP-92 NSCLC) of the same molecule?
**A.** > 100 µM

**Q.** What about the GI50 (KM12 colon) of the same molecule?
**A.** 21.1 µM

**Q.** And the TGI (KM12 colon)?
**A.** > 100 µM

**Q.** And the GI50 (A549 NSCLC)?
**A.** > 100 µM

**Q.** And the TGI (A549 NSCLC)?
**A.** > 100 µM

**Q.** What about the GI50 (SF-268 CNS) of the same molecule?
**A.** 37.8 µM

**Q.** What about the TGI (SF-268 CNS) of the same molecule?
**A.** > 100 µM

**Q.** And the GI50 (HCT-116 colon)?
**A.** 31.8 µM

**Q.** What about the TGI (HCT-116 colon) of the same molecule?
**A.** > 100 µM

**Q.** And the GI50 (MALME-3M melanoma)?
**A.** 27.8 µM

**Q.** And the TGI (MALME-3M melanoma)?
**A.** > 100 µM

**Q.** What about the GI50 (HL-60(TB) leukemia) of the same molecule?
**A.** 33.7 µM

**Q.** And the TGI (HL-60(TB) leukemia)?
**A.** > 100 µM

**Q.** And the GI50 (MDA-MB-435)?
**A.** 46.3 µM

**Q.** And the TGI (MDA-MB-435)?
**A.** > 100 µM

**Q.** What about the GI50 (SW-620 colon) of the same molecule?
**A.** 27.8 µM

**Q.** And the TGI (SW-620 colon)?
**A.** > 100 µM

**Q.** And the GI50 (OVCAR-3 ovarian)?
**A.** 67.1 µM

**Q.** What about the TGI (OVCAR-3 ovarian) of the same molecule?
**A.** > 100 µM

**Q.** And the GI50 (SK-OV-3 ovarian)?
**A.** > 100 µM

**Q.** What about the TGI (SK-OV-3 ovarian) of the same molecule?
**A.** > 100 µM

**Q.** And the GI50 (OVCAR-5 ovarian)?
**A.** > 100 µM

**Q.** What about the TGI (OVCAR-5 ovarian) of the same molecule?
**A.** > 100 µM

**Q.** And the GI50 (K-562 leukemia)?
**A.** 31.9 µM

**Q.** What about the TGI (K-562 leukemia) of the same molecule?
**A.** > 100 µM

**Q.** What about the GI50 (ACHN renal) of the same molecule?
**A.** 48.1 µM

**Q.** What about the TGI (ACHN renal) of the same molecule?
**A.** > 100 µM

**Q.** And the GI50 (OVCAR-4 ovarian)?
**A.** 65.4 µM

**Q.** What about the TGI (OVCAR-4 ovarian) of the same molecule?
**A.** > 100 µM

**Q.** And the GI50 (RXF 393 renal)?
**A.** 46.5 µM

**Q.** What about the TGI (RXF 393 renal) of the same molecule?
**A.** > 100 µM

**Q.** What about the GI50 (SK-MEL-28 melanoma) of the same molecule?
**A.** 26.3 µM

**Q.** What about the TGI (SK-MEL-28 melanoma) of the same molecule?
**A.** 79.4 µM

**Q.** And the GI50 (EKVX NSCLC)?
**A.** > 100 µM

**Q.** And the TGI (EKVX NSCLC)?
**A.** > 100 µM

**Q.** And the GI50 (SR leukemia)?
**A.** 29.1 µM

**Q.** And the TGI (SR leukemia)?
**A.** > 100 µM

**Q.** And the GI50 (RPMI-8226 leukemia)?
**A.** 13.3 µM

**Q.** And the TGI (RPMI-8226 leukemia)?
**A.** 32.2 µM

**Q.** And the GI50 (MCF7 breast)?
**A.** 28.4 µM

**Q.** What about the TGI (MCF7 breast) of the same molecule?
**A.** > 100 µM

**Q.** What about the GI50 (MDA-MB-231 breast) of the same molecule?
**A.** 22.4 µM

**Q.** What about the TGI (MDA-MB-231 breast) of the same molecule?
**A.** 57.6 µM

**Q.** And the GI50 (UACC-257 melanoma)?
**A.** 65.5 µM

**Q.** And the TGI (UACC-257 melanoma)?
**A.** > 100 µM

**Q.** What about the GI50 (NCI-H522 lung) of the same molecule?
**A.** 25.5 µM

**Q.** And the TGI (NCI-H522 lung)?
**A.** 60.5 µM

**Q.** And the GI50 (HOP-62 NSCLC)?
**A.** > 100 µM

**Q.** What about the TGI (HOP-62 NSCLC) of the same molecule?
**A.** > 100 µM

**Q.** And the GI50 (HS 578T breast)?
**A.** > 100 µM

**Q.** And the TGI (HS 578T breast)?
**A.** > 100 µM

**Q.** What about the GI50 (CCRF-CEM leukemia) of the same molecule?
**A.** 19.4 µM

**Q.** And the TGI (CCRF-CEM leukemia)?
**A.** 42.1 µM

**Q.** What about the GI50 (SK-MEL-2 melanoma) of the same molecule?
**A.** > 100 µM

**Q.** What about the TGI (SK-MEL-2 melanoma) of the same molecule?
**A.** > 100 µM

**Q.** And the GI50 (BT-549 breast)?
**A.** 62.9 µM

**Q.** What about the TGI (BT-549 breast) of the same molecule?
**A.** > 100 µM

**Q.** What about the GI50 (SF-539 CNS) of the same molecule?
**A.** 39.8 µM

**Q.** And the TGI (SF-539 CNS)?
**A.** > 100 µM

**Q.** What about the GI50 (COLO 205 colon) of the same molecule?
**A.** 66.3 µM

**Q.** What about the TGI (COLO 205 colon) of the same molecule?
**A.** > 100 µM

**Q.** And the GI50 (TK-10 renal)?
**A.** 46.1 µM

**Q.** What about the TGI (TK-10 renal) of the same molecule?
**A.** > 100 µM

**Q.** And the GI50 (SN12C renal)?
**A.** 16.6 µM

**Q.** And the TGI (SN12C renal)?
**A.** 41.4 µM

**Q.** And the GI50 (IGROV1 ovarian)?
**A.** 14.7 µM

**Q.** And the TGI (IGROV1 ovarian)?
**A.** 36.4 µM

**Q.** What about the GI50 (SNB-75 CNS) of the same molecule?
**A.** 32.2 µM

**Q.** And the TGI (SNB-75 CNS)?
**A.** > 100 µM

**Q.** And the GI50 (NCI-H460 lung)?
**A.** 39.8 µM

**Q.** What about the TGI (NCI-H460 lung) of the same molecule?
**A.** > 100 µM

**Q.** And the GI50 (T-47D breast)?
**A.** 43.4 µM

**Q.** And the TGI (T-47D breast)?
**A.** > 100 µM

**Q.** What about the GI50 (LOX IMVI melanoma) of the same molecule?
**A.** 29.9 µM

**Q.** And the TGI (LOX IMVI melanoma)?
**A.** > 100 µM
